According to US5026836A, “6-sulfenamide, 6-sulfinamide and 6-sulfonamide purines, purine nucleosides, purine nucleotides, pharmaceutical compositions, and processes of making” (priority 1988, dated 1991):
Entries after “also recorded” stand apart in the source; their conditions may differ. Like-named read-outs stand apart in the source and are kept apart here.

Columns and labels:
[1] = Toxicity / maximum tolerated dosage in mice; assay type: in vivo; conditions: ip 104 mg/kg/inj, bid days 1,4,7; 11 CDF1 mice with Colon 26
[2] = tested on: Human Colon Adenocarcinoma CX-1; assay: Human Colon Adenocarcinoma CX-1 tumor weight in nu/nu mice; assay type: in vivo; conditions: for Tumor wt, staging day (mean ± 1SD): before treatment (day 33 post implant); for δT/δC: ≤20% active
Protocol: (§1) In this example Compound 19 was tested against reticulum cell sarcoma M5076. For this and certain other tests below, test results are shown as δT/δC. Utilizing this protocol the difference in tumor weight before treatment and after treatment of the treated animals compared to the control animals is determined.
Compound 19 was further tested against Human Colon Adenocarcinoma CX-1. Activity against this tumor system is indicated at a δT/δC value of less than 20.

L1210/ARA-C cells = assay: Cytosine Arabinoside resistant L1210 cells surviving treatment; assay type: in vivo, mouse
[3] = tested on: reticulum cell sarcoma M5076; assay: Reticulum cell sarcoma M5076 tumor weight in C57B1/6 mice; assay type: in vivo, mouse; conditions: qd days 1,3,5,7,9,11; for Tumor wt, staging day (mean ± 1SD): before treatment (day 15 post inoculation); for Tumor wt, evaluation day (mean ± 1SD): day 12 of treatment
Protocol: as §1

[4] = tested on: human mammary carcinoma MX-1; assay: Human mammary carcinoma MX-1 tumor weight in nu/nu mice; assay type: in vivo; conditions: qd days 1,3,5,7,9,11; for Tumor wt, staging day (mean ± 1SD): before treatment (day 17 post implant); for Tumor wt, evaluation day (mean ± 1SD): day 15 of treatment; for δT/δC: ≤20% moderate activity
Protocol: as §1
In Example P Compound 19 was tested against human mammary carcinoma MX-1.

[5] = tested on: drug resistant cell lines; assay: Generation of drug resistant cell lines
[6] = day 12, ip 138.4 mg/kg/inj, qd days 1,3,5,7,9
[7] = day 12, ip 138.4 mg/kg/inj, qd days 1,4,7,10,13,16
[8] = day 12, ip 173.0 mg/kg/inj, qd days 1,3,5,7
[9] = day 15, ip 138.4 mg/kg/inj, qd days 1,3,5,7,9,11
[10] = day 15, ip 138.4 mg/kg/inj, qd days 1,4,7,10,13
[11] = day 16, ip 173.0 mg/kg/inj, qd days 1,3,5,7,9
[12] = day 16, ip 173.0 mg/kg/inj, qd days 1,4,7,10
[13] = day 17, ip 173.0 mg/kg/inj, qd days 1,4,7,10,13

Nc1nc([S+](N)[O-])c2ncn([C@@H]3O[C@H](CO)[C@@H](O)[C@H]3O)c2n1 (mixture of isomers) [Compound 19, 2-amino-9-β-D-ribofuranosyl-9H-purine-6-sulfinamide]
toxic deaths [1]: 6 | Tumor wt, staging day (mean ± 1SD) ([2]; ip 138.4 mg/kg/inj group, qd days 1,3,5,7,9): 226 mg | Tumor wt, staging day (mean ± 1SD) ([2]; ip 138.4 mg/kg/inj group, qd days 1,3,5,7,9,11): 220 mg | Tumor wt, staging day (mean ± 1SD) ([2]; ip 138.4 mg/kg/inj group, qd days 1,4,7,10,13): 225 mg | Tumor wt, staging day (mean ± 1SD) ([2]; ip 138.4 mg/kg/inj group, qd days 1,4,7,10,13,16): 215 mg | Tumor wt, staging day (mean ± 1SD) ([2]; ip 173.0 mg/kg/inj group, qd days 1,3,5,7): 222 mg | Tumor wt, staging day (mean ± 1SD) ([2]; ip 173.0 mg/kg/inj group, qd days 1,3,5,7,9): 229 mg | Tumor wt, staging day (mean ± 1SD) ([2]; ip 173.0 mg/kg/inj group, qd days 1,4,7,10): 226 mg | Tumor wt, staging day (mean ± 1SD) ([2]; ip 173.0 mg/kg/inj group, qd days 1,4,7,10,13): 226 mg | Tumor wt, evaluation day (mean ± 1SD) [2, 6]: 278 ± 114 mg | δT/δC [2, 6]: 25.0% | Tumor wt, evaluation day (mean ± 1SD) [2, 7]: 296 ± 186 mg | δT/δC [2, 7]: 38.9% | Tumor wt, evaluation day (mean ± 1SD) [2, 8]: 302 ± 144 mg | δT/δC [2, 8]: 38.5% | Tumor wt, evaluation day (mean ± 1SD) [2, 9]: 358 ± 125 mg | δT/δC [2, 9]: 46.6% | Tumor wt, evaluation day (mean ± 1SD) [2, 10]: 375 ± 155 mg | δT/δC [2, 10]: 50.7% | Tumor wt, evaluation day (mean ± 1SD) [2, 11]: 364 ± 254 mg | δT/δC [2, 11]: 39.9% | Tumor wt, evaluation day (mean ± 1SD) [2, 12]: 402 ± 187 mg | δT/δC [2, 12]: 52.1% | Tumor wt, evaluation day (mean ± 1SD) [2, 13]: 279 ± 121 mg | δT/δC [2, 13]: 15.8% | L1210/ARA-C cells surviving (% of day zero inoculum) (L1210/ARA-C cells; ip 104 mg/kg/inj, qd days 1,4,7): 1.7% | L1210/ARA-C cells surviving (% of day zero inoculum) (L1210/ARA-C cells; ip 173 mg/kg/inj, qd day 1): 0.02% | L1210/ARA-C cells surviving (% of day zero inoculum) (L1210/ARA-C cells; ip 173 mg/kg/inj, qd days 1,4,7): 0.6% | efficacy against ARA-C resistant line vs parent (L1210/ARA-C cells; mouse, in vivo): greater efficacy against this resistant cell line than it did to the parent non-drug resistant L1210 cells | Tumor wt, staging day (mean ± 1SD) ([3]; ip 110.8 mg/kg/inj group): 396 ± 116 mg | Tumor wt, staging day (mean ± 1SD) ([3]; ip 138.4 mg/kg/inj group): 355 ± 79 mg | Tumor wt, staging day (mean ± 1SD) ([3]; ip 173.0 mg/kg/inj group): 354 ± 81 mg | Tumor wt, evaluation day (mean ± 1SD) ([3]; ip 110.8 mg/kg/inj): 1121 ± 343 mg | Tumor wt, evaluation day (mean ± 1SD) ([3]; ip 138.4 mg/kg/inj): 855 ± 325 mg | Tumor wt, evaluation day (mean ± 1SD) ([3]; ip 173.0 mg/kg/inj): 409 ± 385 mg | δT/δC ([3]; ip 110.8 mg/kg/inj): 65.8 | δT/δC ([3]; ip 138.4 mg/kg/inj): 45.4 | δT/δC ([3]; ip 173.0 mg/kg/inj): 5.0 | Tumor wt, staging day (mean ± 1SD) ([4]; ip 110.8 mg/kg/inj group): 321 ± 132 mg | Tumor wt, staging day (mean ± 1SD) ([4]; ip 138.4 mg/kg/inj group): 330 ± 118 mg | Tumor wt, staging day (mean ± 1SD) ([4]; ip 173.0 mg/kg/inj group): 323 ± 127 mg | Tumor wt, evaluation day (mean ± 1SD) ([4]; ip 110.8 mg/kg/inj): 943 ± 297 mg | Tumor wt, evaluation day (mean ± 1SD) ([4]; ip 138.4 mg/kg/inj): 884 ± 415 mg | Tumor wt, evaluation day (mean ± 1SD) ([4]; ip 173.0 mg/kg/inj): 489 ± 104 mg | δT/δC ([4]; ip 110.8 mg/kg/inj): 66.1% | δT/δC ([4]; ip 138.4 mg/kg/inj): 58.9% | δT/δC ([4]; ip 173.0 mg/kg/inj): 17.6% | generation of drug resistant cell lines (words) [5]: has not been found to generate resistant cell lines | generation of drug resistant cell lines (words) ([5]; listed as 2-amino-9-β-D-ribofuranosyl-9H-purine-6-sulfinamide): lack of generating resistant cell lines; also recorded: lack of resistance cell generation
